≈ marks a conversion by molar mass, not a printed value.
How the values were obtained:
Type in all cases: functional
[1] = system: Candida albicans; experiment: Antifungal activity against Candida albicans Berkout KCCM 50235 after 1 day by broth dilution method; details: KCCM 50235, 24 h
[2] = system: Candida tropicalis; experiment: Antifungal activity against Candida tropicalis Berkout KCCM 50662 after 1 day by broth dilution method
[3] = system: Pichia kudriavzevii; experiment: Antifungal activity against Candida krusei Berkout KCCM 11655 after 1 day by broth dilution method; details: KCCM 11655, 24 h
[4] = system: Cryptococcus neoformans; experiment: Antifungal activity against Cryptococcus neoformans KCCM 50564 after 1 day by broth dilution method; details: KCCM 50564, 24 h
[5] = system: Aspergillus niger; experiment: Antifungal activity against Aspergillus niger KCTC 1231 after 2 days by broth dilution method
[6] = system: Aspergillus flavus; experiment: Antifungal activity against Aspergillus flavus KCCM 11899 after 2 days by broth dilution method
[7] = Candida tropicalis, KCCM 50662, 24 h, read-out: MIC
[8] = Aspergillus niger, KCTC 1231, 48 h, read-out: MIC
[9] = Aspergillus flavus, KCCM 11899, 48 h, read-out: MIC

Structure (SMILES) | MIC [1] | MIC [2, 7] | MIC [3] | MIC [4] | MIC [5, 8] | MIC [6, 9] | MIC [2] | MIC [5] | MIC [6]
O=C1C(Cl)=C(Nc2ccccc2)C(=O)c2cnncc21 | 50 µg/mL (≈ 175 µM) | 25 µg/mL (≈ 87.5 µM) | 25 µg/mL (≈ 87.5 µM) | 3.2 µg/mL (≈ 11.2 µM) | 100 µg/mL (≈ 350 µM) | 25 µg/mL (≈ 87.5 µM) |  |  | 
O=C1C(Cl)=C(Nc2ccc(Cl)cc2)C(=O)c2cnncc21 | 12.5 µg/mL (≈ 39 µM) | 12.5 µg/mL (≈ 39 µM) | 6.3 µg/mL (≈ 19.7 µM) | 100 µg/mL (≈ 312 µM) | > 100 µg/mL | > 100 µg/mL |  |  | 
COc1ccc(SC2=C(Sc3ccc(OC)cc3)C(=O)c3cnncc3C2=O)cc1 | 25 µg/mL (≈ 57.3 µM) | 100 µg/mL (≈ 229 µM) | 100 µg/mL (≈ 229 µM) | > 100 µg/mL | 12.5 µg/mL (≈ 28.6 µM) | > 100 µg/mL |  |  | 
O=C1C(Cl)=C(Nc2ccc(I)cc2)C(=O)c2cnncc21 | 12.5 µg/mL (≈ 30.4 µM) | 12.5 µg/mL (≈ 30.4 µM) | 12.5 µg/mL (≈ 30.4 µM) | 100 µg/mL (≈ 243 µM) | > 100 µg/mL | 50 µg/mL (≈ 121 µM) |  |  | 
Nc1cccc2cnncc12 | > 100 µg/mL | > 100 µg/mL | 100 µg/mL (≈ 689 µM) | 25 µg/mL (≈ 172 µM) | > 100 µg/mL | 100 µg/mL (≈ 689 µM) |  |  | 
O=C1C=C(Nc2ccc(Br)cc2)C(=O)c2cnncc21 | 12.5 µg/mL (≈ 37.9 µM) | 3.2 µg/mL (≈ 9.69 µM) | 12.5 µg/mL (≈ 37.9 µM) | 12.5 µg/mL (≈ 37.9 µM) | 50 µg/mL (≈ 151 µM) | 50 µg/mL (≈ 151 µM) |  |  | 
O=C1C(Sc2ccc(Br)cc2)=C(Sc2ccc(Br)cc2)C(=O)c2cnncc21 | 50 µg/mL (≈ 93.6 µM) | 50 µg/mL (≈ 93.6 µM) | > 100 µg/mL | > 100 µg/mL | > 100 µg/mL | 50 µg/mL (≈ 93.6 µM) |  |  | 
O=C1C(Cl)=C(Nc2ccc(F)c(F)c2)C(=O)c2cnncc21 | 25 µg/mL (≈ 77.7 µM) | 3.2 µg/mL (≈ 9.95 µM) | > 100 µg/mL | 50 µg/mL (≈ 155 µM) | 100 µg/mL (≈ 311 µM) | 100 µg/mL (≈ 311 µM) |  |  | 
Cc1ccc(NC2=CC(=O)c3cnncc3C2=O)cc1C | 3.2 µg/mL (≈ 11.5 µM) | 100 µg/mL (≈ 358 µM) | 50 µg/mL (≈ 179 µM) | 25 µg/mL (≈ 89.5 µM) | > 100 µg/mL | > 100 µg/mL |  |  | 
O=C1C(Sc2ccccc2)=C(Sc2ccccc2)C(=O)c2cnncc21 |  | 100 µg/mL (≈ 266 µM) |  |  | 6.3 µg/mL (≈ 16.7 µM) | > 100 µg/mL | >100 µg/mL | 6.3 µg/mL (≈ 16.7 µM) | 100 µg/mL (≈ 266 µM)
O=C1C(Sc2ccc(O)cc2)=C(Sc2ccc(O)cc2)C(=O)c2cnncc21 | 100 µg/mL (≈ 245 µM) | > 100 µg/mL | > 100 µg/mL | > 100 µg/mL | > 100 µg/mL | > 100 µg/mL |  |  | 
Nc1ccc(N)c2cnncc12 | > 100 µg/mL | > 100 µg/mL | 100 µg/mL (≈ 624 µM) | 6.3 µg/mL (≈ 39.3 µM) | > 100 µg/mL | 100 µg/mL (≈ 624 µM) |  |  | 
O=C1C=C(Nc2ccc(F)cc2)C(=O)c2cnncc21 | 50 µg/mL (≈ 186 µM) | 25 µg/mL (≈ 92.9 µM) | 25 µg/mL (≈ 92.9 µM) | 6.3 µg/mL (≈ 23.4 µM) | > 100 µg/mL | 100 µg/mL (≈ 371 µM) |  |  | 
COc1ccc(NC2=CC(=O)c3cnncc3C2=O)cc1 | 12.5 µg/mL (≈ 44.4 µM) | 6.3 µg/mL (≈ 22.4 µM) | 12.5 µg/mL (≈ 44.4 µM) | 6.3 µg/mL (≈ 22.4 µM) | 25 µg/mL (≈ 88.9 µM) | 25 µg/mL (≈ 88.9 µM) |  |  | 
O=C1C(Cl)=C(Nc2ccc(Br)cc2)C(=O)c2cnncc21 | 25 µg/mL (≈ 68.6 µM) | 12.5 µg/mL (≈ 34.3 µM) | 25 µg/mL (≈ 68.6 µM) | 3.2 µg/mL (≈ 8.78 µM) | 25 µg/mL (≈ 68.6 µM) | 25 µg/mL (≈ 68.6 µM) |  |  | 
O=C1C(Sc2cccc(Cl)c2)=C(Sc2cccc(Cl)c2)C(=O)c2cnncc21 | 12.5 µg/mL (≈ 28.1 µM) | 100 µg/mL (≈ 225 µM) | > 100 µg/mL | > 100 µg/mL | 6.3 µg/mL (≈ 14.1 µM) | > 100 µg/mL |  |  | 
Nc1nc(=O)[nH]cc1F [FLUCYTOSINE] | 25 µg/mL (≈ 194 µM) | 12.5 µg/mL (≈ 96.8 µM) | 50 µg/mL (≈ 387 µM) | 12.5 µg/mL (≈ 96.8 µM) | 25 µg/mL (≈ 194 µM) | 100 µg/mL (≈ 775 µM) |  |  | 

More lines, now with the values ahead:

MIC [1] | MIC [2, 7] | MIC [3] | MIC [4] | MIC [5, 8] | MIC [6, 9] | MIC [2] | MIC [5] | MIC [6] | Structure (SMILES)
50 µg/mL (≈ 165 µM) | 50 µg/mL (≈ 165 µM) | 50 µg/mL (≈ 165 µM) | 6.3 µg/mL (≈ 20.7 µM) | > 100 µg/mL | > 100 µg/mL |  |  |  | O=C1C(Cl)=C(Nc2ccc(F)cc2)C(=O)c2cnncc21
3.2 µg/mL (≈ 7.14 µM) | 12.5 µg/mL (≈ 27.9 µM) | > 100 µg/mL | 100 µg/mL (≈ 223 µM) | 3.2 µg/mL (≈ 7.14 µM) | 25 µg/mL (≈ 55.8 µM) |  |  |  | O=C1C(Sc2ccc(F)c(F)c2)=C(Sc2ccc(F)c(F)c2)C(=O)c2cnncc21
6.3 µg/mL (≈ 15.3 µM) | 6.3 µg/mL (≈ 15.3 µM) | 100 µg/mL (≈ 242 µM) | > 100 µg/mL | 12.5 µg/mL (≈ 30.3 µM) | > 100 µg/mL |  |  |  | O=C1C(Sc2ccc(F)cc2)=C(Sc2ccc(F)cc2)C(=O)c2cnncc21
25 µg/mL (≈ 70.7 µM) | 12.5 µg/mL (≈ 35.3 µM) | 100 µg/mL (≈ 283 µM) | 50 µg/mL (≈ 141 µM) | 50 µg/mL (≈ 141 µM) | 50 µg/mL (≈ 141 µM) |  |  |  | O=C1C(Cl)=C(Nc2cccc(C(F)(F)F)c2)C(=O)c2cnncc21
25 µg/mL (≈ 78.1 µM) | 25 µg/mL (≈ 78.1 µM) | 25 µg/mL (≈ 78.1 µM) | 3.2 µg/mL (≈ 10 µM) | 12.5 µg/mL (≈ 39 µM) | 25 µg/mL (≈ 78.1 µM) |  |  |  | O=C1C(Cl)=C(Nc2cccc(Cl)c2)C(=O)c2cnncc21
6.3 µg/mL (≈ 23.7 µM) | 12.5 µg/mL (≈ 47.1 µM) | 12.5 µg/mL (≈ 47.1 µM) | 6.3 µg/mL (≈ 23.7 µM) | 50 µg/mL (≈ 188 µM) | 25 µg/mL (≈ 94.2 µM) |  |  |  | Cc1ccc(NC2=CC(=O)c3cnncc3C2=O)cc1
12.5 µg/mL (≈ 30.9 µM) | 50 µg/mL (≈ 124 µM) | > 100 µg/mL | > 100 µg/mL | 6.3 µg/mL (≈ 15.6 µM) | 100 µg/mL (≈ 247 µM) |  |  |  | Cc1cccc(SC2=C(Sc3cccc(C)c3)C(=O)c3cnncc3C2=O)c1
